These results are taken from patent US8901133B2, “Heterocyclic compounds and uses thereof” (Infinity Pharmaceuticals, Inc., priority 2010, dated 2014).

The target of one test is T1, PI3Kα (Homo sapiens, UniProt P42336).
T1 construct: purchased Millipore Corporation 14-602-K
Description: PI3 Kinase HTRF assay, PI3Kα. The settings on record: 10 μM PIP2, 10 μM ATP; read-out: PI3K α IC50. Type of test: biochemical. In a few lines: (§1)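 Enzyme 0.25-0.3 ug/ml + 10 uM PIP2 + compound (2% DMSO), 15 min RT; add ATP to 10 μM, 1 h RT; stop, add detection mix, 1 h RT; TR-FRET read. IC50 by nonlinear regression.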
Background: TR-FRET usually uses a lanthanide donor and a delayed reading to cut background.

For another test, the target named is T2, PI3Kγ (Homo sapiens, UniProt P48736).
T2 construct: purchased Millipore Corporation 14-558-K
Nature of the test: PI3 Kinase HTRF assay, PI3Kγ. Type of test: biochemical. The settings on record: 10 μM PIP2, 10 μM ATP; read-out: PI3K γ IC50. Put shortly: as §1

The next test concerns the target T3, PI3Kδ (Homo sapiens, UniProt O00329).
T3 construct: purchased Millipore Corporation 14-604-K
Nature of the test: PI3 Kinase HTRF assay, PI3Kδ. Type of test: biochemical. Particulars: 10 μM PIP2, 10 μM ATP; read-out: PI3K δ IC50. Put shortly: as §1

The subject of a further test is Balb/c splenic B cells. Nature of the test: B cell activation and proliferation assay (Alamar Blue). Type of test: cell-based. The settings on record: Mus musculus, read-out: B cell prolif. IC50. Here is the method: The ability of one or more subject compounds to inhibit B cell activation and proliferation is determined according to standard procedures known in the art. For example, an in vitro cellular proliferation assay is established that measures the metabolic activity of live cells. The assay is performed in a 96 well microtiter plate using Alamar Blue reduction. Balb/c splenic B cells are purified over a Ficoll-Paque™ PLUS gradient followed by magnetic cell separation using a MACS B cell Isolation Kit (Miletenyi). Cells are plated in 90 ul at 50,000 cells/well in B Cell Media (RPMI+10% FBS+Penn/Strep+50 uM bME+5 mM HEPES). A compound disclosed herein is diluted in B Cell Media and added in a 10 μl volume. Plates are incubated for 30 min at 37 C and 5% CO2 (0.2% DMSO final concentration). A 50 μl B cell stimulation cocktail is then added containing either 10 ug/ml LPS or 5 ug/ml F(ab′)2 Donkey anti-mouse IgM plus 2 ng/ml recombinant mouse IL4 in B Cell Media. Plates are incubated for 72 hours at 37° C. and 5% CO2. A volume of 15 μl of Alamar Blue reagent is added to each well and plates are incubated for 5 hours at 37 C and 5% CO2. Alamar Blue fluoresce is read at 560Ex/590Em, and IC50 or EC50 values are calculated using GraphPad Prism 5.
In general terms: Resazurin is reduced to fluorescent resorufin, in cell work by metabolically active cells.

The target of a further test is T4, PI3Kβ (Homo sapiens, UniProt P42338).
T4 construct: purchased Millipore Corporation 14-603-K
Nature of the test: PI3 Kinase HTRF assay, PI3Kβ. Type of test: biochemical. Particulars: 10 μM PIP2, 10 μM ATP; read-out: PI3K β IC50. In a few lines: as §1

Structures are written as SMILES. pIC50: −log10 of the molar value. Where only a bound is given, the exact number is not on record here.

T2 sequence (P48736 whole entry): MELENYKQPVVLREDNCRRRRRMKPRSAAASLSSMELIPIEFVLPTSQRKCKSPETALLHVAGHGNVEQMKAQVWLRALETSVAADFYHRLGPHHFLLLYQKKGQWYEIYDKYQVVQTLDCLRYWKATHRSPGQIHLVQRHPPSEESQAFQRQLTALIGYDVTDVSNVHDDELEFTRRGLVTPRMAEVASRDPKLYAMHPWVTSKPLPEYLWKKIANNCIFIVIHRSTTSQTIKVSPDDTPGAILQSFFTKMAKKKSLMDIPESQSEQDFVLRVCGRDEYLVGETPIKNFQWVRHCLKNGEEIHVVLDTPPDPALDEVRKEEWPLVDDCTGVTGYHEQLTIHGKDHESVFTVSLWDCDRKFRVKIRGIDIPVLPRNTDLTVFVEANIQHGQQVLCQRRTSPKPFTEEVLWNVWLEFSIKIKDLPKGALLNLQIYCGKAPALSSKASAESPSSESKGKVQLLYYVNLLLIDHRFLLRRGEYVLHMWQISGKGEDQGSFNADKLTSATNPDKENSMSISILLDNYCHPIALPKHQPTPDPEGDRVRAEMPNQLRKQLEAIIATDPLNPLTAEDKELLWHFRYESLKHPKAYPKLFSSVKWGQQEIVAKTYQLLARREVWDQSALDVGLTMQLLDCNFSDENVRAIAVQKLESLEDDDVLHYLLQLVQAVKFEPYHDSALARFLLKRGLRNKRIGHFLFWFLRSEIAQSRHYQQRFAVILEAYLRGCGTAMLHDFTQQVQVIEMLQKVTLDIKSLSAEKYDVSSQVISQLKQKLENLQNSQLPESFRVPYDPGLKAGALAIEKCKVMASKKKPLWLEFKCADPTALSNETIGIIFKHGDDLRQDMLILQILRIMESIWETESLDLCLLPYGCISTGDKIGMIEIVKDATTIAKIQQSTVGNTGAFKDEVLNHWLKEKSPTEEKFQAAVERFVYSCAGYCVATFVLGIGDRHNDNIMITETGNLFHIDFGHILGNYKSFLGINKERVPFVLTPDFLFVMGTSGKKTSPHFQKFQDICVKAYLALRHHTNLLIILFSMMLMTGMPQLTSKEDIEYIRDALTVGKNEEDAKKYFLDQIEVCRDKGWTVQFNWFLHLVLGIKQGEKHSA
T4 sequence (P42338 whole entry): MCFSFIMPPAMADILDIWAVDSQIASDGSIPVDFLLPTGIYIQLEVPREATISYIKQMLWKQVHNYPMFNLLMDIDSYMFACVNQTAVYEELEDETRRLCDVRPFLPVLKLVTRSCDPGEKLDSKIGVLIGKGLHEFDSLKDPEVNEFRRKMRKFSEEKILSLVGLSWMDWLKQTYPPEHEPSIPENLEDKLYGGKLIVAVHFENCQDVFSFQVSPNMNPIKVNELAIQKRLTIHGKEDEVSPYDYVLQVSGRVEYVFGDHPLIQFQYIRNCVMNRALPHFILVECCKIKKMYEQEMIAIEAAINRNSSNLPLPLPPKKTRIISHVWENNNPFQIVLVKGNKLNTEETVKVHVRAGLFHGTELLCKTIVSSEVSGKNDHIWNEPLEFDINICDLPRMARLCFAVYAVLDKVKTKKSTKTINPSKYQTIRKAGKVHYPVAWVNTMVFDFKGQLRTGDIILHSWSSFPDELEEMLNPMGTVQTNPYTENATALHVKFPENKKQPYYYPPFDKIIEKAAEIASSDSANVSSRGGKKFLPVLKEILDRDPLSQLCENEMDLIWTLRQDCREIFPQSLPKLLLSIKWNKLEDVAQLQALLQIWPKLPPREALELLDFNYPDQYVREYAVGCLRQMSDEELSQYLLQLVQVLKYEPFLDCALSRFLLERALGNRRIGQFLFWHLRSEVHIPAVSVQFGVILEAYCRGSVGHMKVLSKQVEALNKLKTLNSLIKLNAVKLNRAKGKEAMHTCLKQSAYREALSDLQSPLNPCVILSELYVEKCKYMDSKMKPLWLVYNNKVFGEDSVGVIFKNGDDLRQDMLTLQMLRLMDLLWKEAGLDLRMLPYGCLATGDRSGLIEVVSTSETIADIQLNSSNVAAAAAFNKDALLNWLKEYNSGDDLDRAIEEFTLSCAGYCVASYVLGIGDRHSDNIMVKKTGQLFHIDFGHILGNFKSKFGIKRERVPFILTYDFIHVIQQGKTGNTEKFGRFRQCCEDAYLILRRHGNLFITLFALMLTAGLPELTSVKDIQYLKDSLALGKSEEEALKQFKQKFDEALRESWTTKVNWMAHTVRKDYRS
T4 sequence (P27986 whole entry partner): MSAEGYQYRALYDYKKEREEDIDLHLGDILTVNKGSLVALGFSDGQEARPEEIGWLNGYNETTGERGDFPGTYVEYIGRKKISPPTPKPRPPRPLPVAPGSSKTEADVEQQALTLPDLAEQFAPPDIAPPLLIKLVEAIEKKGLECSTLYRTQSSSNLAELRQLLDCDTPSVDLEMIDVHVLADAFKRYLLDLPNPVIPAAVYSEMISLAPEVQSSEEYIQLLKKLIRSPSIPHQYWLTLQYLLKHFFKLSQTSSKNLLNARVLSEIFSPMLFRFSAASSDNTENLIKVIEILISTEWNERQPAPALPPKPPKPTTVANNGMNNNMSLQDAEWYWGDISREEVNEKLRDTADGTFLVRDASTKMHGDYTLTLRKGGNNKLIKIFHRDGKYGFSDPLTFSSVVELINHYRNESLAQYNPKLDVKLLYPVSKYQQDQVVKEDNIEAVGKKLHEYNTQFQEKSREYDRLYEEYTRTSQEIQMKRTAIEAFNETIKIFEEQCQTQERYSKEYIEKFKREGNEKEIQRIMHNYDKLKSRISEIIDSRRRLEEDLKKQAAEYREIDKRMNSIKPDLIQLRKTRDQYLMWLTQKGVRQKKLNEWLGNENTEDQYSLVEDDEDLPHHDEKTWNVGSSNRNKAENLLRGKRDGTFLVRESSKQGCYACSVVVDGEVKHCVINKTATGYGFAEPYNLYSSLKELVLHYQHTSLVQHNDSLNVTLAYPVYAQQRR
T3 sequence (O00329 whole entry): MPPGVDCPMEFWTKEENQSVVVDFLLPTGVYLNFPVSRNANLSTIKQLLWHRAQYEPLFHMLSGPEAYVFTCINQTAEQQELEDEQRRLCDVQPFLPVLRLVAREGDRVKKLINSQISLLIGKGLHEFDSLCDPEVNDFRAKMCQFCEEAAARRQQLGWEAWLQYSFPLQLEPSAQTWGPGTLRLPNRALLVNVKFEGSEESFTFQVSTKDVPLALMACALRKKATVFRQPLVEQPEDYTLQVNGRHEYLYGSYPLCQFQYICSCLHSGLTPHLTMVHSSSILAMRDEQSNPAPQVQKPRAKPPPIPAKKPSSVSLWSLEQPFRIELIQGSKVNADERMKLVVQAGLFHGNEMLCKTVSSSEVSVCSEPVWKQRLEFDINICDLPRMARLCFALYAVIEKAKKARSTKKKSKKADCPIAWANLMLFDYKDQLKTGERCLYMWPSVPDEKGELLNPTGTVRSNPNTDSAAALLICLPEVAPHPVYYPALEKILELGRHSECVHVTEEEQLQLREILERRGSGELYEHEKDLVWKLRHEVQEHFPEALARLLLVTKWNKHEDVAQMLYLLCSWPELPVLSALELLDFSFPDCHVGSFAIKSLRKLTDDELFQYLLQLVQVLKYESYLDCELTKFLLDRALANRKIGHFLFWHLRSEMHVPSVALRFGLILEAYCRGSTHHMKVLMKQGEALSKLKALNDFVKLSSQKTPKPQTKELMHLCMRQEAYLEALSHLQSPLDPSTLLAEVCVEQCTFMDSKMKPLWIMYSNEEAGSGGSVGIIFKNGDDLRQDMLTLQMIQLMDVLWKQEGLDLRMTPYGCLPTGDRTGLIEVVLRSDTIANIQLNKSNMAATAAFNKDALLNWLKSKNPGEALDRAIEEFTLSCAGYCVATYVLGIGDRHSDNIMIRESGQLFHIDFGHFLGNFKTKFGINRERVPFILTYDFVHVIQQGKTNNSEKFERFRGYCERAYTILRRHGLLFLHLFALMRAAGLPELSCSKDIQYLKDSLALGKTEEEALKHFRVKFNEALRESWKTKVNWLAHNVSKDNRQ
T3 sequence (P27986 whole entry partner): as the sequence (P27986 whole entry partner) above
T1 sequence (P42336 whole entry): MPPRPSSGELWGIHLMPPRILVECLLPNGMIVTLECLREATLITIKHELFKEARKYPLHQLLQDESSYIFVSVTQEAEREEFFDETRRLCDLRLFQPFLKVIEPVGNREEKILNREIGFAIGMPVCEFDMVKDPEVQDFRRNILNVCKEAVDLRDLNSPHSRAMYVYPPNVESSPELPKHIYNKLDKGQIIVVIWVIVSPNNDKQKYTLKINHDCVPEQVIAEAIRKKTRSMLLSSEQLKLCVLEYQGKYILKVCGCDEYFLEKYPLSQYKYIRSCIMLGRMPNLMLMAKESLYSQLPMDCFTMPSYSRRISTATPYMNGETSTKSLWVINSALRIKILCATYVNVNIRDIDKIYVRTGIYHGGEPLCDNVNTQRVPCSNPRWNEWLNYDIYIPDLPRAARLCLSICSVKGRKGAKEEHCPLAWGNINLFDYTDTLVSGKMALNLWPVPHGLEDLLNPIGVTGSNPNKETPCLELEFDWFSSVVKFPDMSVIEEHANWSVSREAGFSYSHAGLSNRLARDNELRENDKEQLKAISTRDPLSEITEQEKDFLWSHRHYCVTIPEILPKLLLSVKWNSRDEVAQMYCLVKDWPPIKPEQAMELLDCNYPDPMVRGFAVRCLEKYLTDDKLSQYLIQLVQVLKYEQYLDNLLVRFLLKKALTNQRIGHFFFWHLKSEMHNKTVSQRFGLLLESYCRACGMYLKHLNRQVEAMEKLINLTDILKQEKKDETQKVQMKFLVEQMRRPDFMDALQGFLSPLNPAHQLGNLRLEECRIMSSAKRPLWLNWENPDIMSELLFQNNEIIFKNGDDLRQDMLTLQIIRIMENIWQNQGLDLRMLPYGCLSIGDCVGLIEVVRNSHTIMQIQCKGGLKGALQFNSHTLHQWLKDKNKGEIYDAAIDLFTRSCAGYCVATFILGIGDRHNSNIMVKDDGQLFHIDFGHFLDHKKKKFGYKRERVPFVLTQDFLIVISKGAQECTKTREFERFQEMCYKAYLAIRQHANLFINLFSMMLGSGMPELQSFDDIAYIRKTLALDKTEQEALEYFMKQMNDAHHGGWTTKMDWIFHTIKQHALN
T1 sequence (P27986 whole entry partner): as the sequence (P27986 whole entry partner) above

For orientation: pIC50 means −log10 of the IC50, conventionally taken in molar units. On to `C[C@H](Nc1ncnc2scnc12)c1cc2cccc(Cl)c2c(N2CCN(C)CC2)n1` [Compound 98], for which the negative logarithm of the IC50 (pIC50) is over 5.00 on PI3Kα; over 5.00 at PI3Kγ; over 7.00 at PI3Kδ; over 7.00 in the test with Balb/c splenic B cells; over 6.00 at PI3Kβ.
Turning to `CC(C)N1CCC(Oc2nc([C@H](C)Nc3ccnc4ccnn34)cc3cccc(Cl)c23)CC1` [Compound 107], the pIC50 on PI3Kα is over 5.00; at PI3Kγ, over 5.00; on PI3Kδ, over 7.00; in the test on Balb/c splenic B cells, over 7.00; at PI3Kβ, over 5.00.
On to `CC(C)N1CCC(Oc2nc([C@H](C)Nc3ncnc4cccnc34)cc3cccc(Cl)c23)CC1` [Compound 108], for which the negative logarithm of the IC50 (pIC50) on PI3Kα is over 5.00; on PI3Kγ, over 7.00; at PI3Kδ, over 7.00; in the test on Balb/c splenic B cells, over 6.00; at PI3Kβ, under 5.00.
Regarding `C[C@H](Nc1ncnc2scnc12)c1cc2cccc(Cl)c2c(C(=O)N2CCOCC2)n1` [Compound 116], the pIC50 is over 5.00 at PI3Kα; over 6.00 on PI3Kγ; over 7.00 at PI3Kδ; over 7.00 with Balb/c splenic B cells; over 6.00 at PI3Kβ.
Turning to `C[C@H](Nc1ncnc2ccccc12)c1cc2cccc(Cl)c2c(C(=O)N2CCOCC2)n1` [Compound 119], the negative logarithm of the IC50 (pIC50) at PI3Kα was over 5.00; on PI3Kγ, over 6.00; at PI3Kδ, over 7.00; in the test on Balb/c splenic B cells it was over 6.00; on PI3Kβ it was under 5.00.
Consider `C[C@H](Nc1ccnc2ccnn12)c1cc2cccc(Cl)c2c(C(=O)N2CCOCC2)n1` [Compound 120], for which the negative logarithm of the IC50 (pIC50) is over 5.00 at PI3Kα; over 6.00 at PI3Kγ; over 7.00 on PI3Kδ; over 7.00 in the test on Balb/c splenic B cells; over 5.00 at PI3Kβ.
Take `C[C@H](Nc1ncnc2scnc12)c1cc2cccc(Cl)c2c(OCCN2CCCC2)n1` [Compound 121]: the pIC50 at PI3Kα was over 6.00; on PI3Kγ, over 6.00; at PI3Kδ it was over 7.00; in the test with Balb/c splenic B cells it was over 7.00; at PI3Kβ it was over 6.00.
`CC(C)N1CCC(Oc2nc([C@H](C)Nc3ncnc4scnc34)cc3cccc(Cl)c23)CC1` [Compound 122]: the pIC50 at PI3Kα is over 5.00; at PI3Kγ, over 5.00; at PI3Kδ it was over 7.00; in the test with Balb/c splenic B cells, over 6.00; at PI3Kβ, over 5.00.
For `C[C@H](Nc1ncnc2cccnc12)c1cc2cccc(Cl)c2c(C(=O)N2C3CCC2COC3)n1` [Compound 123], the negative logarithm of the IC50 (pIC50) at PI3Kα was over 5.00; at PI3Kγ, over 6.00; at PI3Kδ, over 7.00; with Balb/c splenic B cells it was over 7.00; on PI3Kβ it was over 5.00.
On to `C[C@H](Nc1ncnc2scnc12)c1cc2cccc(Cl)c2c(C(=O)N2C3CCC2COC3)n1` [Compound 124], for which the negative logarithm of the IC50 (pIC50) at PI3Kα was over 5.00; at PI3Kγ, over 6.00; on PI3Kδ, over 7.00; in the test on Balb/c splenic B cells, over 7.00; at PI3Kβ, over 6.00.
As to `C[C@H](Nc1ccnc2ccnn12)c1cc2cccc(Cl)c2c(C(=O)N2C3CCC2COC3)n1` [Compound 125], the negative-log IC50 (pIC50) on PI3Kα is under 5.00; on PI3Kγ, over 5.00; on PI3Kδ, over 7.00; in the test with Balb/c splenic B cells it was over 7.00; at PI3Kβ, over 5.00.
For the compound `C[C@H](Nc1ncnc2[nH]cnc12)c1cc2cccc(Cl)c2c([S+]([O-])CCN2CCOCC2)n1` (some centres unmarked) [Compound 129], the pIC50 was over 5.00 on PI3Kα; over 6.00 on PI3Kγ; over 7.00 on PI3Kδ; over 6.00 with Balb/c splenic B cells; over 6.00 at PI3Kβ.
Turning to `C[C@H](Nc1ncnc2[nH]cnc12)c1cc2cccc(Cl)c2c(SCCN2CCCC2)n1` [Compound 135], the pIC50 at PI3Kα is under 5.00; at PI3Kγ, under 5.00; on PI3Kδ, over 7.00; in the test on Balb/c splenic B cells it was over 6.00; on PI3Kβ, over 5.00.
For the compound `C[C@H](Nc1ncnc2[nH]cnc12)c1cc2cccc(Cl)c2c([S+]([O-])CCN2CCCC2)n1` (some centres unmarked) [Compound 136], the negative logarithm of the IC50 (pIC50) at PI3Kα is over 5.00; on PI3Kγ, over 5.00; on PI3Kδ, over 7.00; with Balb/c splenic B cells it was over 7.00; on PI3Kβ, over 5.00.
`C[C@H](Nc1ncnc2scnc12)c1cc2cccc(Cl)c2c(C(=O)NC2CCOCC2)n1` [Compound 144]: the pIC50 is under 5.00 on PI3Kα; over 5.00 at PI3Kγ; over 7.00 at PI3Kδ; over 7.00 with Balb/c splenic B cells; under 5.00 at PI3Kβ.
`Cc1cccc2cc([C@H](C)Nc3ncnc4[nH]cnc34)nc(OCCN3CCCC3)c12` [Compound 145]: the pIC50 at PI3Kα was under 5.00; at PI3Kγ, under 5.00; at PI3Kδ, over 7.00; in the test on Balb/c splenic B cells, over 7.00; at PI3Kβ, over 5.00.
Turning to `Cc1cccc2cc([C@H](C)Nc3ncnc4[nH]cnc34)nc(CCN3CCOCC3)c12` [Compound 146], the negative logarithm of the IC50 (pIC50) was under 5.00 on PI3Kα; over 5.00 at PI3Kγ; over 7.00 on PI3Kδ; over 7.00 with Balb/c splenic B cells; over 5.00 on PI3Kβ.
In the case of `Cc1cccc2cc([C@H](C)Nc3ncnc4[nH]cnc34)nc(C(=O)N3C4CCC3COC4)c12` [Compound 149], the negative logarithm of the IC50 (pIC50) is under 5.00 on PI3Kα; over 5.00 on PI3Kγ; over 7.00 at PI3Kδ; over 7.00 in the test on Balb/c splenic B cells; under 5.00 at PI3Kβ.
For `C[C@H](Nc1ncnc2[nH]cnc12)c1cc2cccc(-c3cnn(C)c3)c2c(OCCN2CCCC2)n1` [Compound 151], the pIC50 on PI3Kα was under 5.00; on PI3Kγ it was over 5.00; on PI3Kδ, over 7.00; with Balb/c splenic B cells it was over 7.00; on PI3Kβ, over 5.00.
For the compound `CC(C)N1CCC(Oc2nc([C@H](C)Nc3ncnc4[nH]cnc34)cc3cccc(-c4cnn(C)c4)c23)CC1` [Compound 158], the negative-log IC50 (pIC50) was under 5.00 at PI3Kα; under 5.00 at PI3Kγ; over 7.00 at PI3Kδ; over 6.00 in the test on Balb/c splenic B cells; over 5.00 on PI3Kβ.
Regarding `CC(C)N1CCC(Oc2nc([C@H](C)Nc3ncnc4cccnc34)cc3cccc(-c4cnn(C)c4)c23)CC1` [Compound 160], the negative logarithm of the IC50 (pIC50) on PI3Kα is over 5.00; at PI3Kγ it was over 5.00; on PI3Kδ it was over 7.00; in the test with Balb/c splenic B cells, over 7.00; at PI3Kβ, under 5.00.
`Cc1cccc2cc([C@H](C)Nc3ncnc4cccnc34)nc(OCCN3CCCC3)c12` [Compound 162]: the pIC50 on PI3Kα is over 6.00; on PI3Kγ, over 6.00; at PI3Kδ, over 7.00; in the test with Balb/c splenic B cells, over 7.00; on PI3Kβ it was over 5.00.
In the case of `Cc1cccc2cc([C@H](C)Nc3ncnc4cccnc34)nc(OC3CCN(C(C)C)CC3)c12` [Compound 163], the negative-log IC50 (pIC50) was over 5.00 at PI3Kα; over 5.00 at PI3Kγ; over 7.00 on PI3Kδ; over 7.00 in the test with Balb/c splenic B cells; under 5.00 at PI3Kβ.
With `Cc1cccc2cc([C@H](C)Nc3ncnc4cccnc34)nc(N3CCN(C)CC3)c12` [Compound 164], the pIC50 is over 5.00 on PI3Kα; over 5.00 at PI3Kγ; over 7.00 on PI3Kδ; over 7.00 in the test on Balb/c splenic B cells; over 5.00 on PI3Kβ.
For the compound `Cc1cccc2cc([C@H](C)Nc3ncnc4cccnc34)nc(CCN3CCOCC3)c12` [Compound 165], the negative logarithm of the IC50 (pIC50) was over 5.00 at PI3Kα; over 5.00 on PI3Kγ; over 7.00 at PI3Kδ; over 7.00 in the test on Balb/c splenic B cells; under 5.00 at PI3Kβ.
Turning to `Cc1cccc2cc([C@H](C)Nc3ncnc4cccnc34)nc(C(=O)N3CCOCC3)c12` [Compound 166], the negative logarithm of the IC50 (pIC50) at PI3Kα is over 5.00; at PI3Kγ it was over 6.00; at PI3Kδ, over 7.00; with Balb/c splenic B cells, over 7.00; at PI3Kβ, over 5.00.
Take `Cc1cccc2cc([C@H](C)Nc3ncnc4cccnc34)nc(C(=O)N3C4CCC3COC4)c12` [Compound 167]: the pIC50 was over 5.00 on PI3Kα; over 6.00 on PI3Kγ; over 7.00 at PI3Kδ; over 7.00 in the test with Balb/c splenic B cells; over 5.00 on PI3Kβ.
Take `C[C@H](Nc1ncnc2scnc12)c1cc2cccc(Cl)c2c(OC2CCN(S(C)(=O)=O)CC2)n1` [Compound 172]: the negative-log IC50 (pIC50) on PI3Kα is under 5.00; at PI3Kγ it was over 5.00; on PI3Kδ, over 7.00; in the test on Balb/c splenic B cells, over 6.00; on PI3Kβ it was over 5.00.
